The source of these data is patent US20240181068A1, “SELECTIVE NEUTRAL PH INHIBITOR OF CATHEPSIN B” (The Regents of the University of California, priority 2021, published 2024).

One experiment addresses T1, cathepsin B (Homo sapiens, UniProt P07858).
T1 construct: purchased R&D Systems 953-CY-010
The experiment in a line: Inhibition of peptide library cleavages characterized by MSP-MS. As to conditions: 64 nM inhibitor. It is filed as biochemical. The method, then:
Cathepsin B cleavage site analysis by multiplex substrate profiling by mass spectrometry (MSP-MS). Cathepsin B activity (activated) was titrated with E64c to calculate the concentration of active cathepsin B. For MSP-MS assays, cathepsin B (0.1 ng/μL, activated) was incubated with a peptide library of 228 14-mer peptides, each at 0.5 μM peptide, in buffer consisting of 50 mM citrate phosphate of pH 7.2 or pH 4.6, 1 mM EDTA, 100 mM NaCl and 4 mM DTT (total volume of 46 μL). After incubation for […] at 25° C., 20 μL aliquots were removed and combined with 80 μL of 8 M urea. An inactivated cathepsin B control consisted of cathepsin B in assay buffer combined with 8 M urea for 60 minutes at 25° C. for denaturation, followed by addition of the peptide library. After incubation, samples were acidified by addition of 40 μL of 2% FA, desalted using C18 LTS Tips (Rainin), evaporated to dryness in a vacuum centrifuge, and stored at −70° C. Samples were resuspended in 20 μL of 0.1% FA (solvent A) and 1 μL was used for LC-MS/MS analysis. All MSP-MS conditions were conducted in quadruplicate assays.
Inhibitor inhibition of peptide cleavages characterized by MSP-MS. […]

The target of experiment [1] is T2, cathepsin B in SHSY5Y human neuroblastoma cell homogenate (Homo sapiens, UniProt P07858).
T2 construct: endogenous in cells; host or cells: SH-SY5Y human neuroblastoma cells
The experiment in a line: Cathepsin B activity in neuroblastoma cell homogenates in presence of inhibitors. It is filed as biochemical. The conditions noted are these: inhibitor 1 μM, Z-Arg-Arg-AMC substrate, pH 5.5. As for the experimental part:
Cathepsin B in human neuroblastoma cells treated with inhibitors. Neuroblastoma cells (human SHSY5Y) were grown in media consisting of 50% MEMalpha, 50% F12-K, 10% heat-inactivated FBS at 37° C. in an atmosphere of 95% air and 5% CO2. Firstly, cell homogenates were prepared by collection of cells in 0.32 M sucrose and freeze-thawing. Secondly, cells were incubated with Z-Arg-Lys-AOMK or CA-074Me for 6 hours at 37° C., and washed 3 times in phosphate-buffered saline and homogenates were prepared in 0.32 M sucrose with freeze-thawing. CA-074Me is a methyl ester form of the active CA-074 selective inhibitor of cathepsin B (70); CA-074Me penetrates the cell and is converted by intracellular esterases to CA-074.
Cathepsin B activity in the homogenates were monitored with Z-Arg-Arg-AMC substrate (60 μM) with buffer conditions of 40 mM citrate-phosphate, pH 5.5, 5 mM DTT, 1 mM EDTA, 100 mM NaCl, and 1.2% DMSO, followed by incubation at 37° C. for 30 minutes and reading of AMC fluorescence. CA-074-senstive activity was monitored to indicate cathepsin B activity, since CA-074 is a selective inhibitor of this enzyme (70). Protein content was measured in homogenates with the DC protein assay kit. Cathepsin B specific activity was calculated as nmol AMC/μg/min, and reported as the mean±SD (with analyses for statistical significance, p<0.05 by student's t-test).

Entries after “also recorded” stand apart in the source; their conditions may differ.

With `Cc1cccc(C)c1C(=O)OCC(=O)C(CCCCN)NC(=O)C(CCCNC(=N)N)NC(=O)OCc1ccccc1` (stereo not drawn) [Z-Arg-Lys-AOMK], the “inhibition of cathepsin B cleavage of peptide library substrates” value against cathepsin B (pH 4.6) is reported as “does not inhibit; also recorded: did not inhibit”; against cathepsin B (pH 7.2, 1 hr incubation) it was “inhibits; also recorded: completely inhibited”. Moreover, in experiment [1], the “inhibition of proteolytic (cathepsin B) activity in cell lysate” value was “completely inhibited”.
